In the supplement of paper PMC10307832:

Columns and labels:
Test in all cases: relative viability (nuclei count vs DMSO), 5 days (fraction); higher = more cells survive
[1] = compound: Nc1ccn([C@@H]2O[C@H](CO)[C@@H](O)C2(F)F)c(=O)n1 [Gemcitabine] + CC(C)C[C@H](NC(=O)[C@H](Cc1ccccc1)NC(=O)c1cnccn1)B(O)O [Bortezomib] (partner 0.002 µM)
How it was run: (§1)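 After 5 days of treatment, lung cancer cells in 1536-well plates were fixed and stained in a single step (final 0.05% Triton X-100, 1% formaldehyde, 1 ug/ml Hoechst) and their nuclei counted on 4× images. Treatment had been applied by pin tool the day after seeding as one drug alone or as a fixed anchor-drug dose with five library-drug doses (not always all listed) in √10 steps. Relative viability is the nuclei count of treated wells divided by that of vehicle wells, and values are medians of duplicate plates.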

[2] = compound: Nc1ccn([C@@H]2O[C@H](CO)[C@@H](O)C2(F)F)c(=O)n1 [Gemcitabine] + NC(=O)Nc1cc(-c2cccc(F)c2)sc1C(=O)N[C@H]1CCCNC1 [AZD7762] (partner 0.2 µM)
How it was run: as §1

[3] = compound: Nc1ccn([C@@H]2O[C@H](CO)[C@@H](O)C2(F)F)c(=O)n1 [Gemcitabine] + Cc1cc(Nc2cc(N3CCN(C)CC3)nc(Sc3ccc(NC(=O)C4CC4)cc3)n2)n[nH]1 [Tozasertib] (partner 0.1 µM)
How it was run: as §1

[4] = compound: Nc1ccn([C@@H]2O[C@H](CO)[C@@H](O)C2(F)F)c(=O)n1 [Gemcitabine] + Nc1ncn([C@H]2C[C@H](O)[C@@H](CO)O2)c(=O)n1 [Decitabine] (partner 2 µM)
How it was run: as §1

| Cell Line | relative viability ([1]; first compound 0.001 µM) | relative viability ([1]; first compound 0.003162 µM) | relative viability ([1]; first compound 0.01 µM) | relative viability ([1]; first compound 0.03162 µM) | relative viability ([1]; first compound 0.1 µM) | relative viability ([2]; first compound 0.001 µM) | relative viability ([2]; first compound 0.003162 µM) | relative viability ([2]; first compound 0.01 µM) | relative viability ([2]; first compound 0.03162 µM) | relative viability ([2]; first compound 0.1 µM) | relative viability ([3]; first compound 0.001 µM) | relative viability ([3]; first compound 0.003162 µM) | relative viability ([3]; first compound 0.01 µM) | relative viability ([3]; first compound 0.03162 µM) | relative viability ([3]; first compound 0.1 µM) | relative viability ([4]; first compound 0.001 µM) | relative viability ([4]; first compound 0.003162 µM) | relative viability ([4]; first compound 0.01 µM) | relative viability ([4]; first compound 0.03162 µM) | relative viability ([4]; first compound 0.1 µM) |
| --- | --- | --- | --- | --- | --- | --- | --- | --- | --- | --- | --- | --- | --- | --- | --- | --- | --- | --- | --- | --- |
| HCC-827 | 0.964 | 1.08 | 0.875 | 0.607 | 0.427 | 0.128 | 0.12 | 0.107 | 0.11 | 0.133 | 0.402 | 0.392 | 0.303 | 0.191 | 0.169 | 0.333 | 0.226 | 0.274 | 0.166 | 0.186 |
| ChaGo-K-1 | 1 | 0.424 | 0.341 | 0.23 | 0.303 | 0.819 | 0.47 | 0.186 | 0.141 | 0.153 | 0.217 | 0.216 | 0.184 | 0.181 | 0.155 | 0.517 | 0.467 | 0.337 | 0.205 | 0.187 |
| EMC-BAC-2 | 1.09 | 1.1 | 1.08 | 0.161 | 0.169 | 1.18 | 0.723 | 0.224 | 0.301 | 0.232 | 0.269 | 0.32 | 0.26 | 0.176 | 0.155 | 0.965 | 0.936 | 0.726 | 0.356 | 0.262 |
| NCI-H23 | 0.848 | 0.511 | 0.148 | 0.141 | 0.0999 | 0.154 | 0.134 | 0.0996 | 0.112 | 0.118 | 0.688 | 0.225 | 0.114 | 0.129 | 0.114 | 0.284 | 0.237 | 0.155 | 0.157 | 0.136 |
| RERF-LC-KJ | 1.12 | 1.25 | 0.92 | 0.559 | 0.294 | 1.14 | 1 | 0.951 | 0.233 | 0.181 | 0.596 | 0.543 | 0.578 | 0.323 | 0.229 | 0.831 | 0.701 | 0.636 | 0.529 | 0.324 |
| LC-2-ad | 0.998 | 0.992 | 0.476 | 0.11 | 0.0847 | 0.86 | 0.852 | 0.25 | 0.185 | 0.18 | 0.497 | 0.407 | 0.379 | 0.191 | 0.2 | 0.797 | 0.863 | 0.729 | 0.658 | 0.469 |
| HCC-15 | 1.06 | 0.986 | 0.931 | 0.915 | 0.255 | 1.03 | 1.21 | 1.18 | 0.129 | 0.113 | 0.51 | 0.436 | 0.39 | 0.247 | 0.0632 | 0.622 | 0.67 | 0.612 | 0.226 | 0.107 |
| NCI-H2405 | 0.974 | 0.957 | 0.582 | 0.275 | 0.231 | 0.518 | 0.23 | 0.193 | 0.193 | 0.195 | 0.812 | 0.709 | 0.495 | 0.221 | 0.216 | 0.735 | 0.676 | 0.427 | 0.31 | 0.226 |
| LXF-289 | 0.995 | 1.02 | 0.768 | 0.178 | 0.0983 | 1.1 | 0.767 | 0.0873 | 0.0797 | 0.088 | 0.254 | 0.199 | 0.111 | 0.0735 | 0.0697 | 0.396 | 0.372 | 0.321 | 0.222 | 0.151 |
| NCI-H1755 | 0.952 | 0.958 | 0.84 | 0.343 | 0.312 | 0.462 | 0.396 | 0.236 | 0.26 | 0.245 | 0.594 | 0.564 | 0.411 | 0.321 | 0.252 | 0.708 | 0.667 | 0.65 | 0.568 | 0.469 |
| NCI-H1437 | 0.532 | 0.395 | 0.342 | 0.127 | 0.105 | 1.16 | 0.951 | 0.171 | 0.159 | 0.124 | 0.447 | 0.418 | 0.347 | 0.297 | 0.156 | 0.572 | 0.553 | 0.515 | 0.364 | 0.269 |
| NCI-H2085 | 1.02 | 0.964 | 0.897 | 0.682 | 0.405 | 0.949 | 0.847 | 0.613 | 0.337 | 0.271 | 0.729 | 0.858 | 0.731 | 0.562 | 0.443 | 0.583 | 0.507 | 0.486 | 0.425 | 0.428 |
| H3255 | 0.848 | 0.547 | 0.576 | 0.19 | 0.199 | 1 | 0.604 | 0.37 | 0.203 | 0.248 | 0.604 | 0.497 | 0.407 | 0.258 | 0.209 | 0.884 | 0.374 | 0.42 | 0.238 | 0.15 |
| NCI-H650 | 0.847 | 0.327 | 0.201 | 0.151 | 0.175 | 0.359 | 0.172 | 0.204 | 0.186 | 0.161 | 0.676 | 0.384 | 0.193 | 0.143 | 0.15 | 0.243 | 0.237 | 0.164 | 0.175 | 0.153 |
| LCLC-103H | 1.1 | 1.04 | 1.05 | 1.11 | 0.934 | 0.788 | 0.761 | 0.66 | 0.24 | 0.215 | 0.491 | 0.399 | 0.395 | 0.176 | 0.139 | 0.694 | 0.738 | 0.715 | 0.674 | 0.57 |
| LOU-NH91 | 0.498 | 0.494 | 0.423 | 0.323 | 0.313 | 0.762 | 0.603 | 0.395 | 0.288 | 0.292 | 0.699 | 0.578 | 0.415 | 0.211 | 0.146 | 0.801 | 0.732 | 0.756 | 0.562 | 0.41 |
| NCI-H3122 | 1.08 | 0.985 | 0.889 | 0.303 | 0.24 | 1.02 | 0.783 | 0.126 | 0.0803 | 0.097 | 0.428 | 0.365 | 0.222 | 0.106 | 0.0862 | 0.361 | 0.396 | 0.389 | 0.175 | 0.146 |
| PC-3 [JPC-3] | 0.835 | 0.785 | 0.512 | 0.286 | 0.237 | 0.761 | 0.482 | 0.336 | 0.35 | 0.299 | 0.902 | 0.796 | 0.666 | 0.264 | 0.237 | 0.935 | 0.573 | 0.602 | 0.524 | 0.465 |
| NCI-H1651 | 0.988 | 0.89 | 0.919 | 0.885 | 0.173 | 0.519 | 0.435 | 0.39 | 0.0714 | 0.0892 | 0.621 | 0.683 | 0.693 | 0.177 | 0.0714 | 0.639 | 0.406 | 0.596 | 0.509 | 0.172 |
| NCI-H2087 | 0.743 | 0.569 | 0.581 | 0.155 | 0.166 | 1.1 | 0.145 | 0.144 | 0.111 | 0.104 | 0.31 | 0.204 | 0.139 | 0.0946 | 0.0735 | 0.283 | 0.307 | 0.179 | 0.086 | 0.0869 |
